Columns and labels:
[1] = test system: LPS-induced TNF-α in serum; assay: Murine model of lipopolysaccharide-induced cytokine production; format: in vivo, Swiss-Webster mice
Description: This is a contract research performed by Washington Biotechnology Inc., Columbia, Md., protocol 1077. Swiss-Webster mice (female, Harlan Sprague-Dawley, 5-6 weeks) were weighed and dosed orally with 10 ml/kg water, prednisolone at 10 mg/kg, or DA021 at 30 mg/kg or 100 mg/kg. Thirty minutes after oral dosing, lipopolysaccharides (LPS) at 2 mL/kg was injected. Two hours after LPS injection, the mice were anesthetized and exsanguinated into serum separator micro-container tubes. The blood was processed to serum. The serum samples were assayed for tumor necrosis factor-α (TNFα) concentration by ELISA (Pierce) according to the manufacturer's protocol.
Evaluation of the efficacy and potency of orally administered DA021 to inhibit the lipopolysaccharide (LPS)-induced release of tumor necrosis factor-α (TNF-α) in mice was carried out. LPS is a widely used endotoxin, isolated from the bacteria, E. coli in inducing acute inflammation in an organism. Prednisolone is a synthetic corticosteroid drug that is commonly used in inflammatory reactions. It is a broad range immunosuppressant. Based on FIG. 29, there was a marked increase in the amount of TNF-α in serum upon LPS treatment in mice.
Two hours after LPS injection, the serum was collected from the mice. The serum samples were assayed for tumor necrosis factor-α (TNFα) concentration by ELISA (Pierce) according to the manufacturer's protocol. N=10, significance was calculated versus LPS+vehicle using the Student's T-test, *=p≦0.05, #=p≦1×10^−4.

[2] = target: EP3 receptor (Homo sapiens, UniProt P43115); assay: Radioligand competition binding assay, EP3; details: EP3, target PGE2; compound at 10 μM in duplicate; read-out: % inhibition of control specific binding
Sequence of EP3 receptor (P43115 whole entry): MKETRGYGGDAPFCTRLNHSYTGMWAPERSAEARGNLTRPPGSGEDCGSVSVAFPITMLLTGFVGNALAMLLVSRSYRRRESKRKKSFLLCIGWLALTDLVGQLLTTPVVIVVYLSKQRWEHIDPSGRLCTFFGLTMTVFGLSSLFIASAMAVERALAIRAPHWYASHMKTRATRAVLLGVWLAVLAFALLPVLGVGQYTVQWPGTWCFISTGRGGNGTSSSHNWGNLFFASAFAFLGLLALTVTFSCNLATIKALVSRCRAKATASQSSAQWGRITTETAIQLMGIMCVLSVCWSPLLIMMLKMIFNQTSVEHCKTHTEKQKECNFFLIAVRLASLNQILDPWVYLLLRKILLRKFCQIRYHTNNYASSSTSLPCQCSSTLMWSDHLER
Description: To determine the targets of DA compounds, the compound was assessed in binding assays for the family of prostanoid receptors. Both compounds were tested at a single concentration (10 μM) in duplicate. DA001 and DA021 inhibit the ligand binding of prostaglandin E2 receptors EP1, EP2 and EP4 and moderately to prostaglandin (PGF) to its receptor (FP), but not prostaglandin I (PGI2), thromoboxane A and prostaglandin D2 to their receptors.

[3] = test system: ischemic rats; assay: MCAO (middle carotid artery occlusion) transient focal ischemia model; format: in vivo
Description: The MCAO (middle carotid artery occlusion model) was performed to investigate the protective effects of DA001 on the brain when the brain was exposed to transient focal ischemia (or lack of oxygen) such as during a stroke. Hemispheric brain swelling and infarct volume (the area of dead tissue caused by inadequate blood supply) was measured for test subjects treated with the compound 6 hours after ischemia and compared to that of the control group.
The MCAO (middle carotid artery occlusion model) was performed to investigate the protective effects of DA001 on the brain when exposed to transient focal ischemia (or lack of oxygen) such as during a stroke. Neurological scores, hemispheric brain swelling and infarct volume (the area of dead tissue caused by inadequate blood supply) was measured in test subjects treated with the compound 6 hours after ischemia and compared to that of the control group. DA001 effectively attenuated neurological deficits, reduced infarct volume (the area of dead tissue caused by inadequate blood supply), especially in brain slices number 3 to 5, and the extent of edema during ischemic conditions as shown in FIG. 2.

[4] = target: T1, human MC4 receptor (Homo sapiens, UniProt P32245); assay: Radioligand competition binding assay, MC4
T1 sequence (P32245 whole entry): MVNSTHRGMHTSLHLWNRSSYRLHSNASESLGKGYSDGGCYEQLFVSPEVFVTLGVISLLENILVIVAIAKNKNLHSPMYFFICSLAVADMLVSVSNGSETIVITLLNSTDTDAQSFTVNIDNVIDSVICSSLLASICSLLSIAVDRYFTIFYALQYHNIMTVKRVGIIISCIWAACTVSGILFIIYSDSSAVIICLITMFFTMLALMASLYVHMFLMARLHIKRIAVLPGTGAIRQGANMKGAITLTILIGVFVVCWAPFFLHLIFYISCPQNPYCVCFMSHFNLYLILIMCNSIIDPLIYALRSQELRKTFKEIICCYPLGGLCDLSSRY
Description: (§1) DA001 was evaluated against 109 receptor binding assays and 17 enzyme assays, comprising of selective, central and peripheral therapeutically-relevant targets. Radioligand competition assays were conducted whereby DA001 was tested at one concentration (10 μM) in duplicate. […] It could compete with the radioligand [^125I-NDP-alpha-melanocyte-stimulating hormone (α-MSH)] binding for MC1 and MC4 but not MC3 and MC5 nor the related family, the melanin concentrating hormone receptors (MCH1 and MCH2).
(§2) To determine the IC50 for DA001 to inhibit α-MSH binding on MC1 and MC4 receptor, the compound was further characterized by a dose-dependent study. DA001 was evaluated with 8 concentrations on MC1 and MC4 receptor binding assays.
(§3) The specific ligand binding to the receptors is defined as the difference between the total binding and the nonspecific binding determined in the presence of an excess of unlabelled ligand. The results are expressed as a percent of control specific binding [(measured specific binding/control specific binding)×100] and as a percent inhibition of control specific binding {100−[(measured specific binding/control specific binding)×100]} obtained in the presence of DA001. The IC50 values (concentration causing a half-maximal inhibition of control specific binding) and Hill coefficients (nH) were determined by non-linear regression analysis of the competition curves generated with mean replicate values using Hill equation curve fitting (Y=D+[(A−D)/(1+(C/C50)nH)], where Y=specific binding, D=minimum specific binding, A=maximum specific binding, C=compound concentration, C50=IC50, and nH=slope factor). This analysis was performed using a software developed at Cerep (Hill software) and validated by comparison with data generated by the commercial software SigmaPlot® 4.0 for Windows® (© 1997 by SPSS Inc.).

[5] = target: human MC1 receptor (Homo sapiens, UniProt Q01726); assay: Radioligand competition binding assay, MC1
Sequence of human MC1 receptor (Q01726 whole entry): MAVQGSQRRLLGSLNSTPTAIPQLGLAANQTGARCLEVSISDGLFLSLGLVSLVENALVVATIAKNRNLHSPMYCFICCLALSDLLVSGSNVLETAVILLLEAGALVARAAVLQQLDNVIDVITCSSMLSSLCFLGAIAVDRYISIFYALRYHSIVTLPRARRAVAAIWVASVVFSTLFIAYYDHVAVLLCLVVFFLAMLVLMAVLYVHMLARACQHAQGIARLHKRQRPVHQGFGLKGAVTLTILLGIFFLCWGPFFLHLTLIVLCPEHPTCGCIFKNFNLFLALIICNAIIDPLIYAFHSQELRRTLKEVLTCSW
Description: as §1, §2, §3

[6] = target: T2, MC2 receptor (Homo sapiens, UniProt Q01718); assay: Cellular receptor functional assay (cAMP), MC2; format: cell-based
T2 construct: expressed in transfected cells
T2 sequence (Q01718 whole entry): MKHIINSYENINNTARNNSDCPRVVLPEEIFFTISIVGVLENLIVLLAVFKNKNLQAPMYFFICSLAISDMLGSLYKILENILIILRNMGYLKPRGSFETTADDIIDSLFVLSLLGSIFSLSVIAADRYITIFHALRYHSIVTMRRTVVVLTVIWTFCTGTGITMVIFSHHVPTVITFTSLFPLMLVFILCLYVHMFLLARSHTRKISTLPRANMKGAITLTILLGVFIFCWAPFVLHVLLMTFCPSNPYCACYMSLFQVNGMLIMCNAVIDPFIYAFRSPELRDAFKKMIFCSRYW
T2 sequence (Q8TCY5 whole entry partner): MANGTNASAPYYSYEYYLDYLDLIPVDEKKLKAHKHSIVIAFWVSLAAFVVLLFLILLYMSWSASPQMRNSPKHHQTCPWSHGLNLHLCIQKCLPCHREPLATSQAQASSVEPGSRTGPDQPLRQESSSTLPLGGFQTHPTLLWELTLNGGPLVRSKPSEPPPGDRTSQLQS
Description: (§4) DA001 inhibits ligand binding to MC1 and MC4 receptors. To determine whether the inhibitory effect is due to agonist or antagonist activity, DA001 was evaluated at 6 or 8 concentrations in cellular assays assessing receptor function. Upon ligand binding, the MC1 or MC4 receptor is activated which leads to an increase in intracellular cyclic AMP. […] DA001 alone is unable to induce cAMP increase (blue square dots). […] DA001 was further evaluated with MC2 receptor functional assay. Upon ligand binding, the MC2 receptor is activated which leads to an increase in intracellular cyclic AMP.

[7] = target: T1, human MC4 receptor; assay: Cellular receptor functional assay (cAMP), MC4; format: cell-based; details: cells over-expressing MC4
Description: FIG. 1. […] DA001 alone is unable to induce cAMP increase (blue square dots).
as §4

SMILES	inhibition of the LPS response (serum TNF-α) ([1]; 30 mg/kg orally 30 min before LPS) [%]	inhibition of the LPS response (serum TNF-α) ([1]; 100 mg/kg orally 30 min before LPS) [%]	inhibition at 10 µM [2] [%]	total infarction of MCAO rats ([3]; 12.6 mg/kg and 25.2 mg/kg orally 6 h post-ischemia)	extent of edema ([3]; 42 mg/kg)	neurological scores of ischemic rats ([3]; 12.6 and 25.2 mg/kg orally 6 h post-ischemia)	Ki [4] [µM]	IC50 ([4]; 8 concentrations) [µM]	nH ([4]; Hill coefficient)	Ki [5] [µM]	IC50 ([5]; 8 concentrations) [µM]	nH ([5]; Hill coefficient)	Agonist effect, cAMP measurement ([6]; absence of ligand ACTH1-39, cells over-expressing MC2)	Antagonist effect, cAMP measurement ([6]; presence of ligand ACTH1-39, cells over-expressing MC2)	agonist effect (cAMP increase by compound alone) ([7]; compound alone)	IC50 ([7]; inhibition of cAMP increase by NDP-α-MSH, read-out: IC50, antagonist effect) [µM]
C=C(C)[C@@H]1CC[C@]2(/C=N/O)CC[C@]3(C)C(CCC4[C@@]5(C)CCC(=O)[C@@](C)(CO)[C@@H]5CC[C@]43C)C12 (stereo partly shown) [DA021]	73	77	-3	–	–	–	–	–	–	–	–	–	–	–	–	–
C=C(C)[C@@H]1CC[C@]2(C(=O)O)CC[C@]3(C)C(CC[C@@H]4[C@@]5(C)CC[C@H](O[C@@H]6OC[C@H](O)[C@H](O)[C@H]6O[C@@H]6O[C@@H](C)[C@H](O)[C@@H](O)[C@H]6O)[C@@](C)(CO)[C@@H]5CC[C@]43C)[C@@H]12 (stereo partly drawn) [DA001, 3-O-[α-L-rhamnopyranosyl-(1→2)-α-L-arabinopyranosyl]-3,23-dihydroxy-20(29)-lupen-28-oic acid]	–	–	–	significantly decreased	reduced the extent of edema	significantly improved	6.3	6.8	1.3	5.2	10	0.9	0	−8	did not induce an increase in cAMP	17

Source: US9029414B2, “Triterpenoid compounds and methods of use thereof” (Biotechnology Research Corporation, priority 2008, dated 2015)
